Consider 4 compounds from patent US20240059961A1, “BIOCOMPATIBLE OXYGEN-SENSITIVE MATERIALS” (Promega Corporation, priority 2022, published 2024).

Common to all, as to assay type: cell-based
For one test, the system named is HCT-116 cells. Description: Oxygen consumption of HCT-116 cells on the oxygen sensing film. The method, then: To determine the minimum number of cells necessary to observe a signal change, HCT-116 cells were titrated from 15k-120k cells/well (95k-750k cells/cm^2). The following day, the culture medium of the cells was replaced with fresh DMEM (high glucose, without phenol red), and the ratiometric fluorescence of 650/490 nm was recorded over time in a plate reader with temperature control at 37° C. […] Further experiments using drug treatments were carried out at 250k cells/cm^2.
HCT-116 cells were seeded onto the oxygen sensing surface functionalized with 300 ug mL-1 Collagen I at 40,000 cells/well of a half-area 96-well plate (250,000 cells/cm^2). The following day, the culture medium was replaced with medium containing 2-[[4-(trifluoromethoxy)phenyl]hydrazinylidene]propanedinitrile (FCCP), an uncoupler of oxidative phosphorylation in mitochondria that increases oxygen consumption. […] HCT-116 cells were additionally treated with rotenone at 2 uM, which is an inhibitor of oxidative phosphorylation.

Another test has as its system HEP-G2. Description: Oxygen consumption of HEP-G2 cells on the oxygen sensing film. The conditions noted are these: HEP-G2, drug treatment.
Another test concerns PC-3. Description: Oxygen consumption of PC-3 cells on the oxygen sensing film. The conditions noted are these: PC-3, drug treatment.
A further test concerns C2C12 cells. Put plainly: Cell attachment / cellular coverage on protein-coated siloxane surface. The conditions noted are these: for coating concentration sufficient to enhance the adhesion of cells to the surface: C2C12 cells on coated siloxane surface; for cellular coverage on the substrate: C2C12 seeded at 60,000 cells/cm^2, assessed the following day, covalent or passive coating, 100-3,000 ug mL-1. The method, then: After silane film fabrication, the film surface was further modified with a biomacromolecule coating to enhance cell attachment. Biomacromolecules assessed for cell attachment include collagen type I (rat tail, acid extracted) and laminin. […] Passive coating of the substrate is achieved by incubating a solution of the biomacromolecule (e.g., 300 ug mL-1 collagen type I in 17 mM acetic acid) on the film for either 1 hour at room temperature or overnight at 4° C. Excess biomacromolecule was removed by washing the substrate with phosphate buffered saline (PBS).
The surface was coated with Collagen I and Laminin, either covalently or passively. Covalent conjugation is achieved with sulfo-SANPAH conjugation method, and passive coating is achieved by incubating the siloxane surface in the presence of the protein for 1 hour at room temperature. The protein was titrated from 100 ug mL-1-3,000 ug mL-1. C2C12 cells were seeded on the coated surface at 60,000 cells/cm^2, and cellular coverage on the substrate was assessed the following day.

On to `N#CC(C#N)=NNc1ccc(OC(F)(F)F)cc1` [FCCP, 2-[[4-(trifluoromethoxy)phenyl]hydrazinylidene]propanedinitrile], for which the oxygen consumption entry with HCT-116 cells (HCT-116, 40,000 cells/well, FCCP treatment, concentration up to 4 uM) is on record as “oxygen consumption increased with increasing FCCP concentration up to 4 uM”; in the test with HEP-G2, “increased oxygen consumption”; in the test on PC-3 it was “increased oxygen consumption”.

Regarding `C=C(C)[C@H]1Cc2c(ccc3c2O[C@@H]2COc4cc(OC)c(OC)cc4[C@@H]2C3=O)O1` [rotenone], the oxygen consumption result in the test with HCT-116 cells (HCT-116, rotenone at 2 uM) was “inhibited oxygen consumption”; with HEP-G2, “decreased oxygen consumption”; with PC-3 it was “decreased oxygen consumption”.

For the compound “Collagen I: collagen type I (rat tail, acid extracted), biomacromolecule coating to enhance cell attachment”, in the test on C2C12 cells, the “coating concentration sufficient to enhance the adhesion of cells to the surface” value came to 300 µg/mL and the “cellular coverage on the substrate” value is “enhanced cellular coverage”. Further, the cell attachment entry in the test with C2C12 cells (passive coating of the film) is on record as “sufficient for cell attachment”.

Consider Laminin, for which, in the test on C2C12 cells, the “coating concentration sufficient to enhance the adhesion of cells to the surface” value came out at 300 µg/mL and the “cellular coverage on the substrate” value is “enhanced cellular coverage”.
